# In patent publication US11324706B2, “Composition for inhibiting growth of breast cancer stem cells containing phenylacetaldehyde” (JEJU NATIONAL UNIVERSITY INDUSTRY-ACADEMIC COOPERATION …, priority 2016, dated 2022):
# Entries after “also recorded” stand apart in the source; their conditions may differ.
# Assays:
# [1] = tested on: ALDH-positive cell populations of MDA-MB-231 cells; assay: ALDEFLUOR assay; assay type: cell-based, human; conditions: MDA-MB-231, PAA 0.1 mM
# Protocol: MDA-MB-231 cells were treated with PAA (0.1 mM) or DMSO, and then subjected to ALDEFLUOR assay and FACS analysis. A top panel represents, as a negative control group, an ALDH-positive cell treated with an ALDH inhibitor, DEAB, and a bottom panel represents an ALDH-positive cell not treated with DEAB. An ALDH-positive population was represented by a box;
# An ALDEFLUOR assay system provides a novel approach regarding identification, evaluation and separation of CSCs based on activity of aldehyde dehydrogenase (ALDH). BODIPY-aminoacetaldehyde was added as an active reagent to breast cancer cells and converted into fluorescent BODIPY-aminoacetate by aldehyde dehydrogenase (ALDH). An ALDH inhibitor, i.e., diethylaminobenzaldehyde (DEAB), was used as a negative control group. MCF-7 cells were treated with 200 μM of PAA for 24 hours, and the rate of ALDH-positive cells was analyzed by ALDEFLUOR assay. ALDH positive and negative cells were classified by flow cytometry (Accuri C6, BD, San Diego, Calif., USA).
# HT-29 cells = assay: MTS analysis in human colorectal cancer cells; assay type: cell-based; conditions: HT-29, MTS, PAA at a concentration up to 2 mM
# Protocol: Anti-proliferation effects of PAA in human colorectal cancer cell lines were measured by MTS analysis.
# Next, in order to investigate anti-proliferation effects of PAA on human colorectal cancer cell lines, i.e., HT-29 cells, after treatment with PAA at different concentrations, MTS analysis was conducted.
# MDA-MB-231 cells = assay: Analysis of apoptosis by fluorescent staining (Hoechst 33258); assay type: cell-based, human; conditions: MDA-MB-231, Hoechst 33258 staining
# Protocol: (§1) (FIGS. 1D, E and F) show effects of PAA on apoptosis of breast cancer cells. MDA-MB-231 cells were treated with PAA for 24 hours, and apoptotic cells were analyzed by FACS using an Annexin V-PI staining kit. Caspase 3/7 activity in MDA-MB-231 cells was analyzed using a Caspase-Gloss 3/7 kit. By fluorescent staining, apoptotic cells were analyzed and nuclei thereof were stained with Hoechst 33258 in breast cancers (magnified, 200×) (FIG. 1);
# MDA-MB-231 cells were treated with 200 μm of PAA for 24 hours and were cultured in a Hoechst 33258 solution (10 mg/mL) at 37° C. for 30 minutes.
# MCF-7 cells = assay: Cell proliferation (MTS) analysis, MCF-7; assay type: cell-based, human; conditions: MCF-7, 48 hours after PAA treatment
# Protocol: (FIGS. 1A, B and C) show chemical structures of PAA and viability of MCF-7 and MDA-MB-231 cells depending on PAA. MCF-7 and MDA-MB-231 cells were treated with increasing concentrations of PAA for 48 hours. Anti-proliferation effects of PAA were measured by MTS analysis.
# Proliferation rates of MCF-7 and MDA-MB-231 cells were measured using a CellTiter 96® aqueous one solution cell proliferation kit. MCF-7 and MDA-MB-231 cells were cultured in the presence of PAA (0.1, 0.2, 0.5, 1 and 2 mM) on a 96-well plate for 48 hours. In accordance with the manufacturer's protocol, absorbance at 490 nm was determined using a 96-well plate reader (Dynex Revelation, Dynex Ltd., Billingshurst, UK). All data was determined by measurement of three sets.
# In order to investigate anti-proliferation effects of PAA in human breast cancer cell lines, i.e., MCF-7 and MDA-MB-231, the cancer cell lines were treated with different concentrations of PAA and then MTS analysis was conducted.
# [2] = tested on: Caspase 3/7 activity in MDA-MB-231 cells; assay: Caspase-3/7 analysis (Caspase-Glo 3/7 kit); assay type: cell-based, human; conditions: MDA-MB-231, 24 hours
# Protocol: as §1
# Cancer cells were treated with different concentrations of PAA for 24 hours. Caspase-3/7 activity was analyzed in accordance with the manufacturer's instructions regarding a Caspase-Glo 3/7 kit (Promega, Wis., USA). 100 μl of a Caspase-Glo 3/7 reagent was added to a 96-well for culturing cancer cells. The plate was covered with a plate sealer and cultured at room temperature for one hour, and Caspase-3/7 activity was measured using a plate-reading luminometer, GloMax® Explorer (Promega, Wis., USA).
# ROSs in MDA-MB-231 cells = assay: Measurement of ROS activity (ROS-Glo H2O2 assay); assay type: cell-based, human
# Protocol: ROSs in cells were analyzed using a ROS-Glo™ H2O2 assay kit. PAA induced ROS production of breast cancers;
# Cancer cells were cultured on a 96-well white plate and cultured together with PAA (0.5 mM) or DMSO for 24 hours. In accordance with the manufacturer's instructions, ROS was measured using an ROS-Glo™ H2O2 detection solution (Promega, Wis., USA). 100 μl of the ROS-Glo™ H2O2 detection solution was added to a 96-well white plate containing breast cancer cells, cultured at room temperature for 20 minutes, and relative luminance was recorded using a plate reader, luminometer, GloMax® Explorer (Promega, Wis., USA).
# mammospheres = assay: Growth of mammospheres (cell counting); assay type: cell-based
# Protocol: PAA inhibits growth of mammospheres. Mammospheres treated with PAA and DMSO for 2 days were separated into single cells and the equal number of cells were seeded on a 6 cm dish. 24 hours after seeding, the cells were counted. At 2- and 3-days, the cells were counted three times and plotted by the mean of the number. The data was represented by mean±standard deviation (SD). * means P<0.05, as compared to DMSO-treated control group;
# Accordingly, for PAA, the levels of ROSs in breast cancer stem cells were investigated. As a result, PAA induced ROS activity in MDA-MB-231 cells (FIG. 7B). Next, in order to identify whether or not PAA inhibits proliferation of mammospheres, the mammospheres were treated with PAA and the cell number of mammospheres was counted.
structure (smiles),measurement,setting,value
"O=CCc1ccccc1 [PAA, phenylacetaldehyde]",proportion of ALDH-positive breast cancer cells,[1],0.1%
same,growth (proliferation) of colorectal cancer cells,HT-29 cells,did not affect; also recorded: no significant proliferation inhibitory effects
same,formation of apoptotic bodies,MDA-MB-231 cells,apoptotic bodies were formed
same,PAA concentration at which growth of the cell line was concentration-dependently inhibited,MCF-7 cells,≥ 200 μm
same,activity of caspase 3/7,[2],concentration-dependently induced
same,ROS activity,ROSs in MDA-MB-231 cells,induced
same,apoptosis of mammospheres,mammospheres,induced apoptosis
same,proliferation of mammospheres,mammospheres; cell number counted after PAA treatment,greatly reduces
